From patent US12612360B2 (Sanofi, priority 2020, dated 2026)

Target: T1, ERα (Homo sapiens, UniProt P03372)
T1 construct: host or cells: MCF7
T1 sequence (P03372 1-595): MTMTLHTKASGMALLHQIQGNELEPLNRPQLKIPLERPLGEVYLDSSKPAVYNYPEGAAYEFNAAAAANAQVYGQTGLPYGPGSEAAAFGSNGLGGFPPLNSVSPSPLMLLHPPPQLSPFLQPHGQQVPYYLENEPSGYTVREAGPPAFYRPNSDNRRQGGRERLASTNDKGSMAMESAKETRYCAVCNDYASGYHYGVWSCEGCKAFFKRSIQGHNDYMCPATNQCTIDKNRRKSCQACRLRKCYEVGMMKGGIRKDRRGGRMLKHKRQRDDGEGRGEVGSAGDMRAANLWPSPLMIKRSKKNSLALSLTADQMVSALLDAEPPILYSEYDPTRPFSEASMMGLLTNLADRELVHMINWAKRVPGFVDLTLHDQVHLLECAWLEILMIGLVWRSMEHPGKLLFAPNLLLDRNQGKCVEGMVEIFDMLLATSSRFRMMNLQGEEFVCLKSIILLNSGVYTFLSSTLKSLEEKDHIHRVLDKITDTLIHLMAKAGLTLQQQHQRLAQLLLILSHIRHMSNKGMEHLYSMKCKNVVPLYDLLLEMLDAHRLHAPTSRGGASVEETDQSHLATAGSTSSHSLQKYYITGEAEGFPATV
Assay: Estrogen receptor degradation activity: breast cancer cell ERα in cell western assay (MCF7 cells)
Type: cell-based
Settings: for % Degradation At 0.3 μM: 4 hours, relative to fulvestrant 0.1 μM positive control; for DC50: 4 hours post compound addition, concentration which degrades 50% of the estrogen receptor, read-out: Degradation IC50
Method in brief: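 In-cell western readout: ERα immunofluorescence (Alexa 488) normalised to DNA signal (Syto-64) after formalin fixation. Compounds dosed for 4 h on MCF7 cells in stripped-serum, phenol-red-free medium over nine 1:5 steps, 0.3 to […] final; fulvestrant 0.1 μM control. IC50 in nM for 50% ERα degradation.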

Row | % Degradation At 0.3 μM [%] | DC50 [pM] | Structure (SMILES)
1 | 90 | 300 | Cc1cc(C(F)(F)F)ccc1C1=C(c2ccc(C=C3CN(CCCF)C3)cc2)c2ccc(C(=O)O)cc2CCC1 [Example 3, 9-(4-((1-(3-fluoropropyl)azetidin-3-ylidene)methyl)phenyl)-8-(2-methyl-4-(trifluoromethyl)phenyl)-6,7-dihydro-5H-benzo[7]annulene-3-carboxylic acid]
2 | 90 | 300 | Cc1cc(C(F)(F)F)ccc1C1=C(c2ccc(C=C3CN(CCC(F)(F)F)C3)cc2)c2ccc(C(=O)O)cc2CCC1 [Example 113, 8-(2-methyl-4-(trifluoromethyl)phenyl)-9-(4-((1-(3,3,3-trifluoropropyl)azetidin-3-ylidene)methyl)phenyl)-6,7-dihydro-5H-benzo[7]annulene-3-carboxylic acid]
3 | 97 | 600 | Cc1cc(C=C2CN(CCCF)C2)ccc1C1=C(c2ccc(Cl)cc2Cl)CCCc2cc(C(=O)O)ccc21.Cl [Example 93, 8-(2,4-dichlorophenyl)-9-(4-((1-(3-fluoropropyl)azetidin-3-ylidene)methyl)-2-methylphenyl)-6,7-dihydro-5H-benzo[7]annulene-3-carboxylic acid hydrochloride]
4 | 88 | 200 | Cc1c(C2=C(c3ccc(C=C4CN(CCCF)C4)cc3)c3ccc(C(=O)O)cc3CCC2)cccc1C(F)(F)F [Example 14]
5 | 93 | 2900 | Cc1cccc(C2=C(c3ccc(C=C4CN(CCC(F)(F)F)C4)cc3)c3ccc(C(=O)O)cc3CCC2)c1C(F)(F)F [Example 110, 8-(3-methyl-2-(trifluoromethyl)phenyl)-9-(4-((1-(3,3,3-trifluoropropyl)azetidin-3-ylidene)methyl)phenyl)-6,7-dihydro-5H-benzo[7]annulene-3-carboxylic acid]
6 | 95 | 400 | Cc1cc(F)c(C2=C(c3ccc(C=C4CN(CCCF)C4)cc3)c3ccc(C(=O)O)cc3CCC2)c(F)c1 [Example 51, 8-(2,6-difluoro-4-methylphenyl)-9-(4-((1-(3-fluoropropyl)azetidin-3-ylidene)methyl)phenyl)-6,7-dihydro-5H-benzo[7]annulene-3-carboxylic acid]
7 | 87 | 300 | O=C(O)c1ccc2c(c1)CCCC(C13CCCC1C3)=C2c1ccc(C=C2CN(CCCF)C2)cc1 (stereo not drawn) [Example 175, 8-(bicyclo[3.1.0]hexan-1-yl)-9-(4-((1-(3-fluoropropyl)azetidin-3-ylidene)methyl)phenyl)-6,7-dihydro-5H-benzo[7]annulene-3-carboxylic acid]
8 | 88 | 400 | O=C(O)c1ccc2c(c1)CCCC(c1ccc(C3CC3)cc1C(F)(F)F)=C2c1ccc(C=C2CN(CCCF)C2)cc1 [Example 141, 8-(4-cyclopropyl-2-(trifluoromethyl)phenyl)-9-(4-((1-(3-fluoropropyl)azetidin-3-ylidene)methyl)phenyl)-6,7-dihydro-5H-benzo[7]annulene-3-carboxylic acid]
9 | 90 | 500 | O=C(O)c1ccc2c(c1)CCCC(c1cccc(Cl)c1)=C2c1ccc(C=C2CN(CCCF)C2)cc1 [Example 180, 8-(3-chlorophenyl)-9-(4-((1-(3-fluoropropyl)azetidin-3-ylidene)methyl)phenyl)-6,7-dihydro-5H-benzo[7]annulene-3-carboxylic acid]
10 | 90 | 1200 | COc1ccc(C2=C(c3ccc(C=C4CN(CCCF)C4)cc3)c3ccc(C(=O)O)cc3CCC2)cc1C(F)(F)F [Example 148, 9-(4-((1-(3-fluoropropyl)azetidin-3-ylidene)methyl)phenyl)-8-(4-methoxy-3-(trifluoromethyl)phenyl)-6,7-dihydro-5H-benzo[7]annulene-3-carboxylic acid]
11 | 91 | 1400 | CC1CCc2cc(C(=O)O)ccc2C(c2ccc(C=C3CN(CCCF)C3)cc2)=C1c1ccc(Cl)cc1 (single isomer, unassigned) [Example 179, 8-(4-chlorophenyl)-9-(4-((1-(3-fluoropropyl)azetidin-3-ylidene)methyl)phenyl)-7-methyl-6,7-dihydro-5H-benzo[7]annulene-3-carboxylic acid]
12 | 92 | 1200 | O=C(O)c1ccc2c(c1)CCCC(c1ccc(F)cc1C(F)(F)F)=C2c1ccc(C=C2CN(CCC(F)(F)F)C2)cc1 [Example 108, 8-(4-fluoro-2-(trifluoromethyl)phenyl)-9-(4-((1-(3,3,3-trifluoropropyl)azetidin-3-ylidene)methyl)phenyl)-6,7-dihydro-5H-benzo[7]annulene-3-carboxylic acid]
